Values joined by “and” are separate entries in the source; they are usually repeats but may differ in a detail not shown here. Equal entries are not always repeated.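 In this assay, cells in 96-well plates receive the compound at five concentrations for 48 hours. Endpoints are linearly interpolated between the surrounding concentrations. Here, GI50 denotes the concentration required for 50% inhibition of growth. TGI denotes the concentration required for complete inhibition of growth.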
Tests used:
Test in all cases: NCI-60 cell line screen, 48 h
DU-145 prostate = system: DU-145 prostate
HCT-15 colon = system: HCT-15 colon
HOP-92 NSCLC = system: HOP-92 NSCLC
KM12 colon = system: KM12 colon
NCI-H226 lung = system: NCI-H226 lung
OVCAR-4 ovarian = system: OVCAR-4 ovarian
RXF 393 renal = system: RXF 393 renal
SK-OV-3 ovarian = system: SK-OV-3 ovarian
T-47D breast = system: T-47D breast
UACC-257 melanoma = system: UACC-257 melanoma

SMILES	GI50 (DU-145 prostate) [µM]	TGI (DU-145 prostate) [µM]	GI50 (HCT-15 colon) [nM]	TGI (HCT-15 colon)	GI50 (HOP-92 NSCLC) [nM]	TGI (HOP-92 NSCLC)	GI50 (KM12 colon) [µM]	TGI (KM12 colon)	GI50 (NCI-H226 lung) [µM]	TGI (NCI-H226 lung)	GI50 (OVCAR-4 ovarian) [nM]	TGI (OVCAR-4 ovarian)	GI50 (RXF 393 renal) [nM]	TGI (RXF 393 renal)	GI50 (SK-OV-3 ovarian) [µM]	TGI (SK-OV-3 ovarian)	GI50 (T-47D breast) [nM]	TGI (T-47D breast) [µM]	GI50 (UACC-257 melanoma) [µM]	TGI (UACC-257 melanoma)
Nc1nc(-c2ccc(Cl)cc2)nc2c1sc(=S)n2-c1ccccc1	4.36	18.9	4920	> 100 µM	2370	6.25 µM	5.4	> 100 µM	2.78	6.73 µM	1950	4.57 µM	2510	6.19 µM	3.83	14.5 µM	2130	5.54	6.58	32 µM
NCc1ccc(-c2nc(-c3ccc(Cl)c(O)c3)c(-c3ccncc3)[nH]2)cc1	> 25	> 25	> 25000	> 25 µM	2100	19.6 µM	> 25	> 25 µM	> 25	> 25 µM	> 25000	> 25 µM	> 19200	> 25 µM	> 25	> 25 µM	> 25000	> 25	3.63	17.4 µM
COC(=O)c1cc([N+](=O)[O-])cc([N+](=O)[O-])c1Cl	2.3	6.6	2190	5.44 µM	1640	3.04 µM	11.3	23.6 µM	3.58	13.9 µM	1760	3.17 µM	1720	3.12 µM	17.5	31.3 µM	1710	4.21	1.58	2.98 µM
COc1ccc(-c2[nH]c3ccccc3c2/C=C(\C#N)S(=O)(=O)c2ccccc2)cc1	0.447		552	> 48 µM	1430	> 20.6 µM	0.374	2.59 µM	2.02	> 66.4 µM	559	> 31.8 µM	1020	> 100 µM	0.516	> 25.3 µM	530	6.15	10.7	> 100 µM
COc1ccc(/C=N\Nc2nc(SCC(C)C)nc(-c3ccc(OC)cc3)c2C#N)cc1	13.7	> 100	11700	> 100 µM	2390	14.1 µM	10.6	> 100 µM	10.5	49.7 µM	417	1.83 µM	2810	15.8 µM	1.46	14.6 µM	1360	10.7	3.35	35.7 µM
O=S(=O)(NCCCNc1cc(-c2cn(-c3ccccc3)nc2-c2cccc(O)c2)ccn1)c1ccc(F)cc1	4.12	36.7	2450	7.9 µM	2660	7.62 µM	3.24	11.7 µM	4.49	21.6 µM	3820	48.9 µM	3210	14.6 µM	4.44	23.5 µM	2890	8.76	2.92	7.26 µM
C/C(=N\NC(=S)N1CCN(c2ccccn2)CC1)c1ncccn1	3.17	18.8	13	5.48 µM and 16.7 µM	208	5.91 µM and 3.08 µM	0.153	5.92 µM and 15.1 µM	1.71	5.78 µM and 11 µM	2440	4.26 µM and 21.2 µM	1050	4.51 µM and 15.5 µM	0.0884	4.47 µM and 13 µM		18.5	0.0339	1.42 µM and 4.27 µM

From PubChem BioAssay (NCI)
